The text below walks through data of ChEMBL document CHEMBL1141117, “Unambiguous synthesis and prophylactic antimalarial activities of imidazolidinedione derivatives” (J Med Chem, 2005).

Converted amounts (≈) assume the structure as drawn.

Assay [1] deals with Plasmodium yoelii. As to the kind of experiment: Prophylactic activity in infected mouse at 40 mg/kg peroral administration, expressed as no of organisms survived; Total organisms= 5. As to conditions: route oral.
The test system of assay [2] is Plasmodium yoelii. As to the kind of experiment: Prophylactic activity in infected mouse at 2.5 mg/kg peroral administration, expressed as no of organisms survived; Total organisms= 5. The settings on record: route oral.
Assay [3] relates to Plasmodium yoelii. As to the kind of experiment: Prophylactic activity in infected mouse at 5 mg/kg peroral administration, expressed as no of organisms survived; Total organisms= 5. The settings on record: route oral.
Assay [4] concerns Plasmodium yoelii. As to the kind of experiment: In vitro antimalarial activity dosed at 10 mg/kg against exoerythrocytic Plasmodium yoelii in mice (Mus musculus) hepatocytes. The settings on record: Hepatocyte.
Assay [5] concerns Plasmodium yoelii. The assay can be described thus: Prophylactic activity in infected mouse at 160 mg/kg peroral administration, expressed as no of organisms survived; Toxicity death.
Assay [6] relates to Plasmodium yoelii. As to the kind of experiment: Prophylactic activity in infected mouse at 10 mg/kg peroral administration, expressed as no of organisms survived; Total organisms= 5. As to conditions: route oral.
The subject of assay [7] is Plasmodium yoelii. The assay can be described thus: In vitro antimalarial activity dosed at 1 mg/kg against exoerythrocytic Plasmodium yoelii in mice (Mus musculus) hepatocytes. As to conditions: Hepatocyte.
Assay [8] deals with Plasmodium yoelii. As to the kind of experiment: Prophylactic activity in infected mouse at 160 mg/kg peroral administration, expressed as no of organisms survived; Total organisms= 5. The settings on record: route oral.
The subject of assay [9] is Plasmodium falciparum. The assay can be described thus: (§1) In vitro antimalarial activity for Plasmodium falciparum D6. In kind it is functional.
In assay [10] the test system is Plasmodium falciparum. As to the kind of experiment: (§2) In vitro antimalarial activity for Plasmodium falciparum TM91C235. The format is functional.
For assay [11], the system named is Plasmodium falciparum. Described as §2. In kind it is functional, organism-based.
Assay [12] concerns Plasmodium falciparum. The assay can be described thus: (§3) In vitro antimalarial activity for Plasmodium falciparum W2. The format is functional, organism-based.
In assay [13] the test system is Plasmodium falciparum. The description is as §1. In kind it is functional, organism-based.
Assay [14] relates to Plasmodium falciparum. The assay is described as §3. In kind it is functional.
The test system of assay [15] is Plasmodium yoelii. As to the kind of experiment: Prophylactic activity in infected mouse at 1.25 mg/kg peroral administration, expressed as no of organisms survived; Total organisms= 5. The settings on record: route oral.
Assay [16] deals with Plasmodium yoelii. The assay can be described thus: Prophylactic activity in infected mouse at 160 mg/kg peroral administration, expressed as no of organisms survived; Not dosed.
Assay [17] relates to Plasmodium yoelii. The assay can be described thus: Prophylactic activity in infected mouse at 20 mg/kg peroral administration, expressed as no of organisms survived; Total organisms= 5. The settings on record: route oral.
Assay [18] relates to Plasmodium yoelii. The assay can be described thus: Prophylactic activity in infected mouse at 80 mg/kg peroral administration, expressed as no of organisms survived; Total organisms= 5. The settings on record: route oral.
In assay [19] the test system is Plasmodium yoelii. The assay can be described thus: Prophylactic activity in infected mouse at 1.23 mg/kg peroral administration, expressed as no of organisms survived; Total organisms= 5. As to conditions: route oral.

Usually inhibition in vivo stands for the drop in the measured response relative to a control, in per cent. A higher inhibition in vivo goes with strong suppression. Consider `COc1cc(C)c2c(Oc3cccc(C(F)(F)F)c3)c(OC)cc(NC(C)CCCN)c2n1` (centres undefined) [TAFENOQUINE], for which the Activity with Plasmodium yoelii [1] is 5; in the assay with Plasmodium yoelii [2], 3; with Plasmodium yoelii [3] it was 5; in the assay with Plasmodium yoelii [5] it was “Toxicity death”; in the assay with Plasmodium yoelii [6], 5. This molecule also registered an inhibition in vivo at 10 mg/kg with Plasmodium yoelii [4] of 96%. The same molecule showed an inhibition in vivo at 1 mg/kg in the assay with Plasmodium yoelii [7] of 39%.

For `CCOC(=O)/N=C(\NC1=NC(=O)C(=O)N1C(C)C)Nc1ccc(Cl)c(Cl)c1`, the Activity with Plasmodium yoelii [1] worked out at 4; in the assay on Plasmodium yoelii [2] it was 0; in the assay with Plasmodium yoelii [8], 5; in the assay on Plasmodium yoelii [6], 2. In the assay on Plasmodium yoelii [4], this molecule gave an inhibition in vivo at 10 mg/kg of 99%. Moreover, the inhibition in vivo at 1 mg/kg in the assay with Plasmodium yoelii [7] was found to be 63%.

Turning to `COc1cc(NC(C)CCCN)c2ncccc2c1` (centres undefined) [PRIMAQUINE], the Activity is 2 in the assay with Plasmodium yoelii [1], 5 in the assay on Plasmodium yoelii [8] and 0 in the assay with Plasmodium yoelii [6].

In general, IC90 refers to the concentration at which the effect reaches the 90% level. One may read the IC50 as the point on the concentration scale where inhibition reaches its midpoint. As for `CC(C)N1C(=O)C(=O)N=C1NC(=N)Nc1ccc(Cl)c(Cl)c1`, the IC90 was determined as 12.1 µg/mL (≈ 35.3 µM) in the assay on Plasmodium falciparum [9], 11.3 µg/mL (≈ 33.2 µM) in the assay with Plasmodium falciparum [10] and 10.9 µg/mL (≈ 31.8 µM) with Plasmodium falciparum [14]. The values for the IC50 in the assay on Plasmodium falciparum [11], in the assay on Plasmodium falciparum [12] and in the assay on Plasmodium falciparum [13] were 2.59 µg/mL (≈ 7.57 µM), 2.66 µg/mL (≈ 7.79 µM) and 2.97 µg/mL (≈ 8.68 µM), respectively. Besides, 10 mg/kg produced 91% inhibition in vivo with Plasmodium yoelii [4]. The molecule further displayed an inhibition in vivo at 1 mg/kg in the assay with Plasmodium yoelii [7] of 50%.

`O[C@@H](c1cc(C(F)(F)F)nc2c(C(F)(F)F)cccc12)C1CCCCN1` (some centres undefined) [MEFLOQUINE]: the IC90 in the assay with Plasmodium falciparum [9] is 0.0134 µg/mL (≈ 0.0355 µM); in the assay with Plasmodium falciparum [10], 0.044 µg/mL (≈ 0.116 µM); with Plasmodium falciparum [14] it was 0.00401 µg/mL (≈ 0.0106 µM).

Take `CC(C)N1C(=O)C(=O)N=C1N/C(=N\C(=O)OCc1ccccc1)Nc1ccc(Cl)c(Cl)c1`: the Activity in the assay with Plasmodium yoelii [1] and with Plasmodium yoelii [8] was 0 throughout. Testing at 10 mg/kg in the assay on Plasmodium yoelii [4] gave an inhibition in vivo of 43%. In the assay with Plasmodium yoelii [7], this molecule returned an inhibition in vivo at 1 mg/kg of 25%.

Take `CCCCCCOC(=O)/N=C(\NC1=NC(=O)C(=O)N1C(C)C)Nc1ccc(Cl)c(Cl)c1`: the results for the Activity in the assay on Plasmodium yoelii [1], with Plasmodium yoelii [8] and in the assay with Plasmodium yoelii [6] were 2, 1 and 0, respectively.

Regarding `CC(C)N1C(=O)C(=O)N=C1N/C(=N\C(=O)OC(C)(C)C)Nc1ccc(Cl)c(Cl)c1`, the Activity amounted to 2 in the assay with Plasmodium yoelii [1], 5 in the assay on Plasmodium yoelii [8] and 0 in the assay with Plasmodium yoelii [6]. The molecule also yielded an inhibition in vivo at 10 mg/kg with Plasmodium yoelii [4] of 99%. In the assay on Plasmodium yoelii [7], this molecule yielded an inhibition in vivo at 1 mg/kg of 69%.

As to `CC(C)/N=C(/NC(=O)OC(C)(C)C)NC1=NC(=O)C(=O)N1c1ccc(Cl)c(Cl)c1`, the Activity in the assay on Plasmodium yoelii [1] stood at 4; in the assay with Plasmodium yoelii [15], 2; with Plasmodium yoelii [2], 2; in the assay on Plasmodium yoelii [3] it was 4; in the assay with Plasmodium yoelii [8], 5.

Regarding `CCO[C@H]1O[C@@H]2O[C@@]3(C)CC[C@H]4[C@H](C)CC[C@@H]([C@H]1C)[C@@]24OO3` [ARTEMOTIL], the Activity with Plasmodium yoelii [1], with Plasmodium yoelii [8] and in the assay with Plasmodium yoelii [6] was 0 throughout.

With `C=CCCOC(=O)/N=C(\NC1=NC(=O)C(=O)N1C(C)C)Nc1ccc(Cl)c(Cl)c1`, the Activity with Plasmodium yoelii [1] is reported as 0; in the assay with Plasmodium yoelii [8] it was 1; in the assay with Plasmodium yoelii [6], 0.

`CC(C)/N=C(/NC(=O)OCc1ccccc1)NC1=NC(=O)C(=O)N1c1ccc(Cl)c(Cl)c1`: the Activity with Plasmodium yoelii [1] was 2; with Plasmodium yoelii [2] it was 0; in the assay with Plasmodium yoelii [3] it was 3; in the assay with Plasmodium yoelii [8] it was 3; in the assay with Plasmodium yoelii [6], 2. This molecule also displayed an inhibition in vivo at 10 mg/kg with Plasmodium yoelii [4] of 87%. The same molecule came in with an inhibition in vivo at 1 mg/kg with Plasmodium yoelii [7] of 6.7%.

As to `C=CCCOC(=O)N/C(=N/C(C)C)NC1=NC(=O)C(=O)N1c1ccc(Cl)c(Cl)c1`, the Activity result in the assay with Plasmodium yoelii [16] is “Not Dosed”.

For the molecule `CCOC(=O)N/C(=N/C(C)C)NC1=NC(=O)C(=O)N1c1ccc(Cl)c(Cl)c1`, the Activity in the assay with Plasmodium yoelii [1] was found to be 5; in the assay with Plasmodium yoelii [3], 1; in the assay on Plasmodium yoelii [17], 3; in the assay on Plasmodium yoelii [6] it was 1; in the assay on Plasmodium yoelii [18] it was 5. This molecule also registered an inhibition in vivo at 10 mg/kg in the assay with Plasmodium yoelii [4] of 98%. The same molecule came in with an inhibition in vivo at 1 mg/kg in the assay with Plasmodium yoelii [7] of 10%.

Consider `Cc1oc(=O)oc1COC(=O)/N=C(\NC1=NC(=O)C(=O)N1C(C)C)Nc1ccc(Cl)c(Cl)c1`, for which the Activity is recorded as 2 in the assay with Plasmodium yoelii [1], 0 in the assay with Plasmodium yoelii [2], 3 in the assay with Plasmodium yoelii [8] and 2 with Plasmodium yoelii [6].

For the molecule `CCCCCCOC(=O)N/C(=N/C(C)C)NC1=NC(=O)C(=O)N1c1ccc(Cl)c(Cl)c1`, the Activity with Plasmodium yoelii [1] worked out at 3; in the assay on Plasmodium yoelii [3], 2; in the assay on Plasmodium yoelii [17], 4; in the assay with Plasmodium yoelii [6] it was 2; in the assay with Plasmodium yoelii [18], 5.

For `CC(C)COC(=O)/N=C(\NC1=NC(=O)C(=O)N1C(C)C)Nc1ccc(Cl)c(Cl)c1`, the Activity with Plasmodium yoelii [1] is on record as 2; in the assay on Plasmodium yoelii [8], 5; in the assay on Plasmodium yoelii [6], 0.

For the molecule `CCN(CC)CCCC(C)Nc1ccnc2cc(Cl)ccc12` (centres undefined) [CHLOROQUINE], the results for the IC90 in the assay on Plasmodium falciparum [9], in the assay on Plasmodium falciparum [10] and with Plasmodium falciparum [14] were 0.00533 µg/mL (≈ 0.0167 µM), 0.0552 µg/mL (≈ 0.173 µM) and 0.199 µg/mL (≈ 0.621 µM), respectively.

Regarding `CC(C)COC(=O)N/C(=N/C(C)C)NC1=NC(=O)C(=O)N1c1ccc(Cl)c(Cl)c1`, the Activity in the assay with Plasmodium yoelii [1] came to 5; in the assay on Plasmodium yoelii [2], 1; in the assay with Plasmodium yoelii [19] it was 0; with Plasmodium yoelii [3], 5; with Plasmodium yoelii [8] it was 5; in the assay with Plasmodium yoelii [6], 5.

On to `CC(C)N1C(=O)C(=O)N=C1N/C(=N\C(=O)OCCOCc1ccccc1)Nc1ccc(Cl)c(Cl)c1`, for which the Activity in the assay on Plasmodium yoelii [1] came to 0; in the assay on Plasmodium yoelii [8] it was 1; in the assay with Plasmodium yoelii [6] it was 0.
